Measured values published in ChEMBL document CHEMBL6103613 (J Med Chem, 2025).
Values after ≈ are worked out from the molar mass of the structure shown. Active and inactive are the calls of the source. The calls are words filed in the database; no cut-off is given here. Positions of bridges follow the written chain, without caps; N, C: chain ends. Non-standard residues stand in square brackets, D forms with d. Residues, ends and D or L forms follow the SMILES beside them. *: point of attachment. X1 = CC[C@H](C)CCCCC(=O)*; dDab = NCC[C@@H](N)C(=O)O; Dab = NCC[C@H](N)C(=O)O

Assays:
[1] = system: Staphylococcus aureus; assay: Antimicrobial activity against Staphylococcus aureus ATCC 25923 assessed as inhibition of visible bacterial growth incubated for 18 hrs by CLSI based analysis; assay type: functional
[2] = system: Staphylococcus aureus; assay: Antimicrobial activity against methicillin-resistant Staphylococcus aureus ATCC 43300 assessed as inhibition of visible bacterial growth incubated for 18 hrs by CLSI based analysis; assay type: functional
[3] = system: Staphylococcus aureus; assay: Antimicrobial activity against methicillin-resistant Staphylococcus aureus clinical isolate 2 assessed as inhibition of visible bacterial growth incubated for 18 hrs by CLSI based analysis; assay type: functional
[4] = system: Staphylococcus aureus; assay: Antimicrobial activity against methicillin-resistant Staphylococcus aureus clinical isolate 3 assessed as inhibition of visible bacterial growth incubated for 18 hrs by CLSI based analysis; assay type: functional
[5] = system: Staphylococcus aureus; assay: Antimicrobial activity against methicillin-resistant Staphylococcus aureus clinical isolate 4 assessed as inhibition of visible bacterial growth incubated for 18 hrs by CLSI based analysis; assay type: functional
[6] = system: Bacillus subtilis; assay: Antimicrobial activity against Bacillus subtilis ATCC 23875 assessed as inhibition of visible bacterial growth incubated for 18 hrs by CLSI based analysis; assay type: functional
[7] = system: Enterococcus faecalis; assay: Antimicrobial activity against Enterococcus faecalis ATCC 19433 assessed as inhibition of visible bacterial growth incubated for 18 hrs by CLSI based analysis; assay type: functional
[8] = system: Enterococcus faecium; assay: Antimicrobial activity against vancomycin-resistant Enterococcus faecium assessed as inhibition of visible bacterial growth incubated for 18 hrs by CLSI based analysis; assay type: functional
[9] = system: Enterococcus gallinarum; assay: Antimicrobial activity against Enterococcus gallinarum ATCC 49573 assessed as inhibition of visible bacterial growth incubated for 18 hrs by CLSI based analysis; assay type: functional
[10] = system: Staphylococcus epidermidis; assay: Antimicrobial activity against Staphylococcus epidermidis ATCC 12228 assessed as inhibition of visible bacterial growth incubated for 18 hrs by CLSI based analysis; assay type: functional
[11] = system: Escherichia coli; assay: Antimicrobial activity against Escherichia coli assessed as inhibition of visible bacterial growth incubated for 18 hrs by CLSI based analysis; assay type: functional
[12] = system: Staphylococcus aureus; assay: Antimicrobial activity against Staphylococcus aureus assessed as inhibition of visible bacterial growth incubated for 18 hrs by CLSI based analysis; assay type: functional
[13] = system: Candida albicans; assay: Antifungal activity against Candida albicans assessed as reduction in fungal growth incubated for 18 hrs by CLSI based analysis; assay type: functional
[14] = system: Staphylococcus aureus; assay: Antimicrobial activity against Staphylococcus aureus assessed as reduction in bacterial growth at 2 times MIC incubated for 24 hrs by time-killing assay; assay type: functional, organism-based
[15] = system: Staphylococcus aureus; assay: Antibacterial activity against methicillin-resistant Staphylococcus aureus infected in kunming mouse pneumonia model assessed as decrease in IL-6 expression in lung at 5 mg/kg, ip measured upto 8 days; assay type: functional, organism-based; conditions: time <= 8.0 day
[16] = system: Staphylococcus aureus; assay: Antibacterial activity against methicillin-resistant Staphylococcus aureus infected in kunming mouse pneumonia model assessed as decrease in IL-10 expression in lung at 5 mg/kg, ip measured upto 8 days; assay type: functional, organism-based; conditions: time <= 8.0 day
[17] = system: Staphylococcus aureus; assay: Antibacterial activity against methicillin-resistant Staphylococcus aureus infected in kunming mouse pneumonia model assessed as decrease in TNF-alpha expression in lung at 5 mg/kg, ip measured upto 8 days; assay type: functional, organism-based; conditions: time <= 8.0 day
[18] = system: Cell membrane; assay: Disruption of cell membrane integrity in Staphylococcus aureus at 4 times of MIC incubated for 1 mins by Propidium iodide staining based analysis; assay type: subcellular
[19] = system: Cell membrane; assay: Disruption of cell membrane integrity in Staphylococcus aureus at 4 times of MIC incubated for 30 mins by Propidium iodide staining based analysis; assay type: subcellular
[20] = Hemolytic activity against mouse Red blood cell incubated for 1 hr; assay type: toxicity, cell-based; conditions: erythrocyte
[21] = Therapeutic index, ratio of HC5 for hemolytic activity in mouse Red blood cell to MIC for antimicrobial activity against Staphylococcus aureus ATCC 25923 assessed as inhibition of visible bacterial growth; assay type: toxicity, cell-based, RBC; conditions: red blood cells, read-out: TI
[22] = Hemolytic activity against mouse Red blood cells at 100 microg/ml incubated for 1 hr relative to control; assay type: toxicity, cell-based, Erythrocyte; conditions: at 100 µg/mL, read-out: Activity

Row | Compound | MIC [1] | MIC [2] | MIC [3] | MIC [4] | MIC [5] | MIC [6] | MIC [7] | MIC [8] | MIC [9] | MIC [10] | MIC [11] | MIC [12] | MIC [13] | HC5 [20] | selectivity ratio [21] | other results
1 | C#CC[C@H]1NC(=O)[C@@H]2CSC(N2)[C@H](C(C)C)NC(=O)[C@@H](C(C)C)NC(=O)[C@H](C(C)C)NC(=O)[C@@H](CCCCN)NC(=O)[C@H](Cc2c(C(c3ccccc3)(c3ccccc3)c3ccccc3)[nH]c3ccccc23)NC1=O | 6.25 µg/mL (≈ 6.03 µM) | 6.25 µg/mL (≈ 6.03 µM) | 6.25 µg/mL (≈ 6.03 µM) | 12.5 µg/mL (≈ 12.1 µM) | 6.25 µg/mL (≈ 6.03 µM) | 6.25 µg/mL (≈ 6.03 µM) | 25 µg/mL (≈ 24.1 µM) | 25 µg/mL (≈ 24.1 µM) | 12.5 µg/mL (≈ 12.1 µM) | 6.25 µg/mL (≈ 6.03 µM) | 3.13 µg/mL (≈ 3.02 µM) | 3.13 µg/mL (≈ 3.02 µM) | 3.13 µg/mL (≈ 3.02 µM) |  |  | 
2 | CN[C@H](CC(C)C)C(=O)N[C@H]1C(=O)N[C@@H](CC(N)=O)C(=O)N[C@H]2C(=O)N[C@H]3C(=O)N[C@H](C(=O)N[C@H](C(=O)O)c4cc(O)cc(O)c4-c4cc3ccc4O)[C@H](O)c3ccc(c(Cl)c3)Oc3cc2cc(c3O[C@@H]2O[C@H](CO)[C@@H](O)[C@H](O)[C@H]2O[C@H]2C[C@](C)(N)[C@H](O)[C@H](C)O2)Oc2ccc(cc2Cl)[C@H]1O [VANCOMYCIN] | 0.78 µg/mL (≈ 0.538 µM) | 0.78 µg/mL (≈ 0.538 µM) | 3.13 µg/mL (≈ 2.16 µM) | 0.78 µg/mL (≈ 0.538 µM) | 1.56 µg/mL (≈ 1.08 µM) | 0.39 µg/mL (≈ 0.269 µM) | 0.39 µg/mL (≈ 0.269 µM) | 25 µg/mL (≈ 17.3 µM) | 3.13 µg/mL (≈ 2.16 µM) | 0.39 µg/mL (≈ 0.269 µM) |  |  |  |  |  | Activity [14]: inactive; Activity [15]: Active; Activity [16]: Active; Activity [17]: Active
3 | CC(C)CCCCC(=O)N[C@@H](CCN)C(=O)N[C@H](C(=O)N[C@@H](CCN)C(=O)N[C@H]1CCNC(=O)[C@H]([C@@H](C)O)NC(=O)[C@H](CCN)NC(=O)[C@H](CCN)NC(=O)[C@H](CC(C)C)NC(=O)[C@@H](Cc2ccccc2)NC(=O)[C@@H](CCN)NC1=O)[C@@H](C)O.CC[C@H](C)CCCCC(=O)N[C@@H](CCN)C(=O)N[C@H](C(=O)N[C@@H](CCN)C(=O)N[C@H]1CCNC(=O)[C@H]([C@@H](C)O)NC(=O)[C@H](CCN)NC(=O)[C@H](CCN)NC(=O)[C@H](CC(C)C)NC(=O)[C@@H](Cc2ccccc2)NC(=O)[C@@H](CCN)NC1=O)[C@@H](C)O (X1-[Dab]T[Dab][Dab][dDab][dF]L[Dab][Dab]T; lactam 4-C) |  |  |  |  |  |  |  |  |  |  |  |  |  |  |  | Activity [18]: 5.54%; Activity [19]: 38%
4 | CC(C)[C@@H]1NC(=O)[C@@H](C(C)C)NC(=O)[C@H](C(C)C)NC(=O)[C@@H](CCCCN)NC(=O)[C@H](Cc2c(C(c3ccccc3)c3ccccc3)[nH]c3ccccc23)NC(=O)[C@@H](C(C)C)NC(=O)[C@@H]2CSC1N2 | 12.5 µg/mL (≈ 13 µM) | 12.5 µg/mL (≈ 13 µM) | 12.5 µg/mL (≈ 13 µM) | 12.5 µg/mL (≈ 13 µM) | 12.5 µg/mL (≈ 13 µM) | 6.25 µg/mL (≈ 6.48 µM) | 50 µg/mL (≈ 51.9 µM) | 50 µg/mL (≈ 51.9 µM) | 25 µg/mL (≈ 25.9 µM) | 6.25 µg/mL (≈ 6.48 µM) | 3.13 µg/mL (≈ 3.25 µM) | 3.13 µg/mL (≈ 3.25 µM) | 3.13 µg/mL (≈ 3.25 µM) | 74.17 µg/mL | 5.93 | 
5 | CC(C)C[C@H]1NC(=O)[C@H](Cc2c(C(c3ccccc3)(c3ccccc3)c3ccccc3)[nH]c3ccccc23)NC(=O)[C@@H](CCCCN)NC(=O)[C@@H]2CSC(N2)[C@H](C(C)C)NC(=O)[C@@H](C(C)C)NC(=O)[C@H](C(C)C)NC1=O | 6.25 µg/mL (≈ 5.93 µM) | 12.5 µg/mL (≈ 11.9 µM) | 12.5 µg/mL (≈ 11.9 µM) | 25 µg/mL (≈ 23.7 µM) | 12.5 µg/mL (≈ 11.9 µM) | 6.25 µg/mL (≈ 5.93 µM) | 12.5 µg/mL (≈ 11.9 µM) | 25 µg/mL (≈ 23.7 µM) | 12.5 µg/mL (≈ 11.9 µM) | 12.5 µg/mL (≈ 11.9 µM) | 3.13 µg/mL (≈ 2.97 µM) | 3.13 µg/mL (≈ 2.97 µM) | 3.13 µg/mL (≈ 2.97 µM) | 46.47 µg/mL | 7.44 | 
6 | CC(C)C[C@H]1NC(=O)[C@H](Cc2c(C(c3ccccc3)(c3ccccc3)c3ccccc3)[nH]c3ccccc23)NC(=O)[C@@H](C(C)C)NC(=O)[C@@H]2CSC(N2)[C@H](C(C)C)NC(=O)[C@@H](C(C)C)NC(=O)[C@H](CCCCN)NC1=O | 6.25 µg/mL (≈ 5.93 µM) | 6.25 µg/mL (≈ 5.93 µM) | 6.25 µg/mL (≈ 5.93 µM) | 6.25 µg/mL (≈ 5.93 µM) | 6.25 µg/mL (≈ 5.93 µM) | 6.25 µg/mL (≈ 5.93 µM) | 12.5 µg/mL (≈ 11.9 µM) | 12.5 µg/mL (≈ 11.9 µM) | 12.5 µg/mL (≈ 11.9 µM) | 6.25 µg/mL (≈ 5.93 µM) | 3.13 µg/mL (≈ 2.97 µM) | 3.13 µg/mL (≈ 2.97 µM) | 3.13 µg/mL (≈ 2.97 µM) | 68.73 µg/mL | 11 | 
7 | CC(C)C[C@H]1NC(=O)[C@H](Cc2c(C(c3ccccc3)(c3ccccc3)c3ccccc3)[nH]c3ccccc23)NC(=O)[C@@H](C(C)C)NC(=O)[C@@H]2CSC(N2)[C@H](C(C)C)NC(=O)[C@@H](CCCCN)NC(=O)[C@H](C(C)C)NC1=O | 3.13 µg/mL (≈ 2.97 µM) | 3.13 µg/mL (≈ 2.97 µM) | 3.13 µg/mL (≈ 2.97 µM) | 6.25 µg/mL (≈ 5.93 µM) | 6.25 µg/mL (≈ 5.93 µM) | 6.25 µg/mL (≈ 5.93 µM) | 12.5 µg/mL (≈ 11.9 µM) | 12.5 µg/mL (≈ 11.9 µM) | 6.25 µg/mL (≈ 5.93 µM) | 6.25 µg/mL (≈ 5.93 µM) | 3.13 µg/mL (≈ 2.97 µM) | 3.13 µg/mL (≈ 2.97 µM) | 3.13 µg/mL (≈ 2.97 µM) | 44.04 µg/mL | 14.1 | hemolysis at 1 h, 100 microg/ml [22]: 23%
